In one data set the test system is PFK-1. The data set is described as follows: kinase activity of PFK-1. In kind it is biochemical. Particulars: 10 μM.
For data set [1], the system named is H460 cells. The data set is described as follows: F2,6BP measurements in H460 cells. In kind it is cell-based, human. As for the experimental part: F2,6BP measurements: Cells or tissues were prepared as previously described and F2,6BP content measured using a coupled enzyme reaction following the method of Van Schaftingen et at (Van Schaftingen E et al. A kinetic study of pyrophosphate: fructose-6-phosphate phosphotransferase from potato tubers. Application to a microassay of fructose 2,6-bisphosphate. Eur J Biochem 1982 December; 129(1): 191-5) and normalized to total cellular protein measured by the bicinchoninic acid assay (BCA, Thermo Scientific). […] In order to measure F2,6BP, cells were harvested, washed with PBS, lysed in NaOH/Tris acetate by heating at 80° C. and lysates neutralized to pH 7.2. F2,6BP content was measured using a coupled enzyme reaction following the method of Van Schaftingen et al (Eur J Biochem. 1982; 129(1): 191-195). The F2,6BP concentration was normalized to total cellular protein measured by the bicinchoninic acid assay (BCA, Thermo Scientific) All data are expressed as the mean±SD of three experiments. Statistical significance was assessed by the two-sample t test (independent variable).

For data set [2], the system named is H460 cells. The data set is described as follows: ATP measurements in H460 cells. The following applies: H460, 10 μM 5MPN, 6-72 hours. In kind it is cell-based, human. As for the experimental part:
Cells were lysed and intracellular ATP determined as described previously. For example, cells were washed (while still adherent) with cold PBS 1×, lysed with Passive Lysis Buffer (1×; Molecular Probes, Invitrogen) added directly to the plates, and immediately harvested by scraping. The lysates were flash frozen (to −80° C.) and thawed (to 37° C.) once to accomplish complete lysis and then centrifuged (at 4° C.) for 30 seconds to clear the lysates. Intracellular ATP levels were determined using a bioluminescence assay (Molecular Probes), utilizing recombinant firefly luciferase and its substrate, D-luciferin. The luminescence was read in a TD-20/20 luminometer (Turner Designs) at 560 nm. The ATP values were calculated using an ATP standard curve. The protein concentrations of the lysates were estimated using the BCA assay (Pierce Biotechnology) and ATP was expressed as pmol/μg protein. All data are expressed as the mean±SD of three experiments. Statistical significance was assessed by the two-sample t test (independent variable).

A further data set relates to H1299. The experiment in a line: viable cell count of H1299 cells. In kind it is cell-based. Particulars: H1299, 48 hours. How it is done:
(§1) Cell Viability: Cells were incubated in 20% trypan blue (Sigma) for 5 minutes. Cells excluding trypan blue were counted using a standard hemocytometer (Hausser Scientific) to determine total numbers of viable cells. Data are expressed as mean±SD of three experiments.

In the next data set the test system is H441. The experiment in a line: viable cell count of H441 cells. The class given is cell-based. The following applies: H441, 48 hours. As for the experimental part: as §1
The test system of the next data set is H522. The data set is described as follows: viable cell count of H522 cells. Particulars: H522, 48 hours. The class given is cell-based. How it is done:
as §1

The subject of a further data set is MDA-MB-231. The data set is described as follows: viable cell count of MDA-MB-231 cells. In kind it is cell-based. The following applies: MDA-MB-231, 48 hours. As for the experimental part:
as §1

The test system of the next data set is NHBE cells. The data set is described as follows: viable cell count of normal human bronchial epithelial cells. In kind it is cell-based. The following applies: 48 hours.
Excerpt: (§2) Cell lines and cell culture: H460, H1299, H441, H522 and A549 non-small cell lung cancer (NSCLC), MDA-MB-231 (breast), LNCaP (prostatic) and HCT116 (colon) adenocarcinoma and Lewis lung carcinoma (LLC) cell lines were obtained from ATCC and used within 6 months of acquisition, PFKFB4^7 ear pinna Fibroblasts isolated from TamCre/loxP/PFKFB4^−/− mice were immortalized as described previously (Chesney J et al. Fructose-2,6-bisphosphate synthesis by 6-phosphofructo-2-kinase/fructose-2,6-bisphosphatase 4 (PFKFB4) is required for the glycolytic response to hypoxia and tumor growth. Oncotarget 2014 Aug. 30; 5(16):6670-86). Normal bronchial epithelial cells (NHBE) were obtained from Lonza and NHBE cells expressing telomerase, SV40 large T antigen and activated Ras (hT/LT/Ras) were a gift from Dr. B. J. Rollins, Dana Farber Cancer Institute. All cell lines were tested and found negative for mycoplasma (PCR Mycoplasma Detection Kit, ABM). […]
as §1

Data set [3] deals with PFKFB4−/− lung fibroblasts. The data set is described as follows: cell counts of tamoxifen-inducible PFKFB4-/- lung fibroblasts. In kind it is cell-based, mice. Particulars: 4HT-induced deletion, 10 μM 5MPN, 24 hours.
Excerpt: as §2, §1

The test system of data set [4] is H460 cells. The data set is described as follows: apoptosis by flow cytometry (annexin V / propidium iodide) in H460 cells. In kind it is cell-based, human. The following applies: H460, 10 μM 5MPN. As for the experimental part:
(§3) Flow Cytometry: To measure apoptosis, cells were stained with annexin V and propidium iodide and examined as previously described. […] DMSO used as vehicle. For cell cycle experiments, cells were detached, washed with cold PBS and fixed in 70% ethanol (4° C. 30 minutes). The cells then were pelleted by centrifugation, resuspended in PBS containing PI and RNase A, incubated at 37° C. in the dark for 30 minutes and analyzed by flow cytometry (BD FACSCalibur). Data were analyzed using FlowJo software (TREE STAR Inc.). Results were calculated as the mean±SD of three experiments.
A general note: In flow cytometry, cells or beads pass a laser one at a time.

Data set [5] concerns H460 cells. The experiment in a line: cell cycle analysis by flow cytometry in H460 cells. In kind it is cell-based, human. As for the experimental part:
as §3

The test system of another data set is LLC cells. The data set is described as follows: in vitro cell cycle analysis of LLC cells. The class given is cell-based. Particulars: 10 μM 5MPN. How it is done:
as §3

A short description of data set [6]: pharmacokinetic profile of 5MPN after IV and oral administration. The class given is in vivo. Particulars: C57BL/6 mice. As for the experimental part:
In vivo Studies. The pharmacokinetic profile was determined in female C57BL/6 mice following IV and oral administration of 5MPN. Using only female mice lowered the animal numbers required for meaningful results without issues of potential gender differences in exposure. Eight time points (n=3/time point) were used to determine PK parameters calculated using WinNonLin v5.0. Plasma samples were extracted using acetonitrile and analyzed by LC/MS-MS using a PhenomexSynergi Polar-RP 4 micron 50×2.0 mm column eluted with a biphasic mobile phase (0.5% formic acid in acetonitrile and water).

Setting [7] is: H460 transfected with PFKFB4, 10 μM 5MPN, 24 hours.

Consider one compound from patent US12377087B2, “Compounds for the treatment of cancer” (UNIVERSITY OF LOUISVILLE RESEARCH FOUNDATION, INC., priority 2015, dated 2025).

For `COc1cccc2c(NCCCCCO[N+](=O)[O-])ccnc12` [5MPN, 5-[(8-methoxyquinolin-4-yl)amino]pentyl nitrate], the “inhibition of PFK-1 kinase activity” value in the data set with PFK-1 is “no inhibition of kinase activity”. In the data set with H460 cells [1] (H460, 10 μM 5MPN, 6-72 hours), the “intracellular concentration of F2,6BP” value is recorded as “reduced”. The “reduction in F2,6BP with over-expression of PFKFB4” value in the data set with H460 cells [1] (setting [7]) was “reversed”. In addition, in the data set with H460 cells [2], the ATP result is “reduced”. The “growth, viable cells” value in the data set with H1299, in the data set with H441, in the data set with H522 and with MDA-MB-231 was “dose-dependent reduction in growth” throughout. In addition, the “cell growth, live cells” value with NHBE cells is given as “virtually unaffected”. The “anti-proliferative effect with genomic deletion of Pfkfb4” value in [3] is “sensitized”. Further, the apoptotic cells entry in the data set with H460 cells [4] is on record as “minimal increase”. For the same compound, the “cell cycle distribution (G1, S, G2)” value in the data set with H460 cells [5] (H460, 10 μM 5MPN) is reported as “marked G1 arrest”. The “G1 arrest with over-expression of PFKFB4” value in the data set on H460 cells [5] (setting [7]) is “reversed”. In the data set on LLC cells, the “cell cycle arrest in LLC cells in vitro” value is reported as “G1 arrest”. Besides, the oral bioavailability entry in data set [6] is “High Oral Bioavailability”. Further, the “pharmacokinetics of intravenous and oral administration” value in data set [6] (IV and oral) is given as “both routes were adequate to achieve potentially therapeutic concentrations”.
